Assay results published in ChEMBL document CHEMBL3507680, “University of Dundee, Gates Library screen for HepG2 cell viability”.

Test: Human HepG2 cell viability assay in 384 well format
Format: toxicity, cell-based
Parameters: dose 125 nL, time 70.5 hour; cytotoxicity at 70.5 h: concentration not given beside the values
Details: HepG2 cells, read-out: Inhibition

| Compound | cytotoxicity at 70.5 h |
| --- | --- |
| COCCS(=O)(=O)NC(C)c1ccccc1Br (stereo not given) | -0.0652% |
| CC(C)(C)C(=O)NS(=O)(=O)c1ccc(F)cc1C(F)(F)F | -3.41% |
| CSCc1cccc(NC(=O)N2CCC(N3CC=CC3)C2)c1 (stereo not given) | 35% |
| CS(=O)(=O)CCSc1n[nH]c(-c2ccc3c(c2)CCC3)n1 | 3.91% |
| Cc1cc(C(=O)Nc2cccn(Cc3ccc(F)cc3)c2=O)on1 | -3.03% |
| CC1CN(C(=O)c2ccc(=O)n(C)c2)c2ccccc2NC1=O (stereo not given) | -0.859% |
| CSCC(C)(O)CNc1ncccc1I (stereo not given) | 7.7% |
| CN(C)C(CNCc1nc(-c2ccsc2)no1)c1ccco1 (stereo not given) | -16.8% |
| Cc1cc(C(C)NCCN2CCC(N(C)C)CC2)c(C)s1 (stereo not given) | 12.7% |
| CC(CNCC1(S(C)(=O)=O)CCOCC1)c1ccc(F)cc1 (stereo not given) | 9.05% |
| CN(CCS(=O)(=O)c1cc(Cl)ccc1Cl)CC(=O)Nc1ccc(F)cc1 | 6.55% |
| Fc1cccc2ncnc(NCC3(N4CCOCC4)CCSC3)c12 (stereo not given) | 3.01% |
| CN(CC(N)=O)C(=O)c1cnc(-c2ccc(Cl)s2)s1 | -4.25% |
| CN1CC(C(=O)NCc2cccnc2OCc2ccccc2)CC1=O (stereo not given) | -4.14% |
| CN1CC(C(=O)NCc2ccc(OCc3cccnc3)cc2)CC1=O (stereo not given) | 12.9% |
| Cc1nnc2n1CCN(CC(O)CN1CCC(C)CC1)C2 (stereo not given) | -2.86% |
| CCc1ccc(C(=O)NC(C)c2ccc(S(C)(=O)=O)c(F)c2)o1 (stereo not given) | 13.1% |
| CCN(C)CC1CCN(c2ncc(Br)cn2)C1 (stereo not given) | 9.92% |
| O=C1COc2cccc(OCc3ccccn3)c2N1 | -0.596% |
| CN(CCS(=O)(=O)c1cc(Cl)ccc1Cl)CC(=O)Nc1cccc(F)c1 | -0.61% |

| Compound | cytotoxicity at 70.5 h |
| --- | --- |
| Cc1cc(NCCOCCS(C)(=O)=O)nc2ccccc12 | 1.59% |
| CC(C1CC1)N(CC(=O)NCC(F)(F)F)C1CC1 (stereo not given) | 13.2% |
| Cc1cccc(NCc2ncc(C(C)(C)C)o2)c1 | 12.6% |
| CC(=O)N1CCCN(C(=O)Cc2c(C)nc(C)[nH]c2=O)CC1 | -0.651% |
| CCC(C)CNCC1(S(C)(=O)=O)CCOCC1 (stereo not given) | -1.98% |
| CC(CN1CCOCC1)OC(=O)c1cccc2cn[nH]c12 (stereo not given) | 12% |
| CC(NCCCN1CCCN(C)CC1)C(C)(C)C (stereo not given) | -11.8% |
| COCCOCCCNC(=O)c1cc(Cl)cc2cccnc12 | -18.1% |
| CC(CC1CC1)NCCCN1CCCN(C)CC1 (stereo not given) | 7.35% |
| O=S(=O)(Cc1ccccc1)NCCc1nnc2n1CCC2 | -7.99% |
| O=S(=O)(Cc1ccc(F)cc1)NCc1nnc2n1CCC2 | -24.3% |
| Cc1ccc(C)n1-c1c(C(=O)NCC(c2ccsc2)N(C)C)cnn1C (stereo not given) | -14.4% |
| Cn1nnnc1SCCC(=O)NCC1Cc2ccccc2O1 (stereo not given) | -23.7% |
| Cc1ccc(C)n1-c1c(C(=O)NCC(C)N(C)C)cnn1C (stereo not given) | -0.908% |
| CCOc1cccc(CNC(=O)c2cnn(CC)c2C(F)(F)F)c1 | -2.57% |
| CC(=O)c1ccc(-n2c(C)cn(CCC(=O)NC(N)=O)c2=O)cc1 | -14.8% |
| CCN(Cc1ccc(F)cc1Cl)C1CCS(=O)(=O)C1 (stereo not given) | -19.3% |
| COc1cc(I)c(Cl)cc1C(=O)N(C)CC(C)(C)O | 21% |
| O=C(Cn1cc(I)cn1)NCC1CCC1 | -20.2% |
| O=C(NCCC1CC1)NCc1cccc(-n2ccnc2)c1 | -2.8% |

| Compound | cytotoxicity at 70.5 h |
| --- | --- |
| Cc1ccc(CCCC(=O)N2CCC(CS(N)(=O)=O)CC2)s1 | -18.3% |
| Cc1cc(F)c(S(=O)(=O)Nc2ccn(CCCC#N)n2)cc1F | -16% |
| Cc1cc(F)cc(S(=O)(=O)Nc2ccn(CCCC#N)n2)c1 | -9.51% |
| Cc1cncc(NC(=O)c2ccc(CN3CCC(CO)CC3)cc2)c1 | -16.3% |
| CCS(=O)(=O)c1ccc2c(c1)N1CCS(=O)(=O)N=C1O2 | -15.4% |
| NS(=O)(=O)CC1CCCN(C(=O)CCCC2CCCC2)C1 (stereo not given) | -12.7% |
| COCCCN(Cc1ccccc1Cl)C1CCS(=O)(=O)C1 (stereo not given) | 25.3% |
| N#Cc1cccc(CN(CCO)Cc2ccsc2)c1 | -20.4% |
| CCOc1cc(C(=O)O)cc(-c2ccccc2)c1OC | -1.01% |
| O=C(CNC(=O)C1CC1)NCC(F)(F)F | 1.27% |
| N#Cc1ccc(N2CCN(c3nccs3)CC2)nc1 | -0.838% |
| N#Cc1ccc(N2CCCN(c3nccs3)CC2)nc1 | 1.75% |
| CN1CCC(CNC(=O)c2cccc(NC(N)=O)c2)c2ccccc21 (stereo not given) | -2.27% |
| Cc1ccc(C(=O)NCC2CCN(C)c3ccccc32)c(=O)[nH]1 (stereo not given) | -2.94% |
| CCn1c(CN2CCOC(Cn3cccn3)C2)nc2c(F)cccc21 (stereo not given) | -3.89% |
| CCc1noc(CN(C)CCC(=O)Nc2ccccc2C#N)n1 | -1.02% |
| CC(C)Oc1ccccc1CNC(=O)c1[nH]ncc1Br | 7% |
| Cn1c(CN2CCOC(Cn3cncn3)C2)nc2ccccc21 (stereo not given) | 13.6% |
| CCCS(=O)(=O)NC(=O)c1ccc(Br)o1 | 1.65% |
| Clc1cccc(-c2noc(CCN3CCN(c4ccncc4)CC3)n2)c1 | 4% |
